Earlier results, collected in PubChem BioAssay AID1259410 (Chemical Carcinogenesis Research Information System (CCRIS), 2018).

System: rodent tumor promotion studies, tumor incidence
Assay: CCRIS tumor promotion studies
Conditions: Route [Promoter]: DERMAL, Species: MOUSE

CCCCCCCCCCCCCC(=O)O[C@@H]1[C@@H](C)[C@@]2(O)[C@@H](C=C(CO)C[C@]3(O)C(=O)C(C)=C[C@@H]23)[C@@H]2C(C)(C)[C@]12OC(C)=O
outcome (Carcinogen: 1,2-DIHYDRO-1,2-DIHYDROXY-5,6-DIMETHYLCHRYSENE, 139562-14-4, Doses [Carcinogen]: 33, 100 NMOL IN 0.1 ML ACETONE ONCE, Doses [Promoter]: 0, 2.5 UG IN 0.1 ML ACETONE 3/WK FOR 20 WK BEGINNING 10 D POST CARCINOGEN DOSE (STUDY DURATION: 20 WK), Route [Carcinogen]: DERMAL, Strain/Sex: CD-1/FEMALE): skin: tumor
outcome (Carcinogen: 1,3-DIMETHYLBENZO[B]FLUORANTHRENE, 95741-51-8, Doses [Carcinogen]: 40, 100 NMOL TOTAL DOSES GIVEN IN 10 SUBDOSES 1/2 D IN 0.1 ML ACETONE, Doses [Promoter]: 2.5 UG IN 0.1 ML ACETONE 3/WK FOR 30 WK BEGINNING 10 D POST CARCINOGEN TREATMENT (STUDY DURATION: 34 WK), Route [Carcinogen]: DERMAL, Strain/Sex: CD-1/FEMALE): skin: tumors
outcome (Carcinogen: 1-METHYL-4H-CYCLOPENTA[DEF]PHENANTHRENE, 98090-89-2, Doses [Carcinogen]: 100 UG IN ACETONE (100 µL) 1/2 D FOR A TOTAL OF 10 SUBDOSES (TOTAL DOSE 1 MG), Doses [Promoter]: 0.0025% IN 100 µL ACETONE 3/WK FOR 20 WK BEGINNING POST CARCINOGEN TREATMENT (STUDY DURATION: 23 WK), Route [Carcinogen]: DERMAL, Strain/Sex: CD-1/FEMALE): skin: tumors
outcome (Carcinogen: 1-METHYLBENZO[B]FLUORANTHRENE, 95741-48-3, Doses [Carcinogen]: 100 NMOL TOTAL DOSE GIVEN IN 10 SUBDOSES 1/2 D IN 0.1 ML ACETONE, Doses [Promoter]: 2.5 UG IN 0.1 ML ACETONE 3/WK FOR 30 WK BEGINNING 10 D POST CARCINOGEN TREATMENT (STUDY DURATION: 34 WK), Route [Carcinogen]: DERMAL, Strain/Sex: CD-1/FEMALE): skin: tumors
outcome (Carcinogen: 2'-(4-NITROPHENOXY)OXIRANE, 59485-08-4, Doses [Carcinogen]: 5 UMOL IN 0.2 ML 15% DMSO IN ACETONE ONCE, Doses [Promoter]: 0, 15 NMOL IN 0.1 ML ACETONE ONCE 18-24 HR PRIOR TO CARCINOGEN DOSE THEN BEGINNING 1 WK LATER 2/WK FOR DURATION OF STUDY, Route [Carcinogen]: DERMAL, Strain/Sex: ICR/FEMALE): skin: papilloma
outcome (Carcinogen: 2-AMINO-3-METHYL-9H-PYRIDO[2,3-B]INDOLE, 68006-83-7, Doses [Carcinogen]: 0, 4 MG/0.1 ML DMSO 2/WK FOR 5 WK, Doses [Promoter]: 2.5 UG IN 0.1 ML ACETONE 2/WK FOR 47 WK BEGINNING 1 WK POST CARCINOGEN TREATMENT (STUDY DURATION: 48 WK), Route [Carcinogen]: DERMAL, Strain/Sex: CD-1/FEMALE): skin: tumor
outcome (Carcinogen: 2-AMINO-5-PHENYLPYRIDINE, 33421-40-8, Doses [Carcinogen]: 0, 10 MG/0.1 ML DMSO 2/WK FOR 5 WK, Doses [Promoter]: 2.5 UG IN 0.1 ML ACETONE 2/WK FOR 47 WK BEGINNING 1 WK POST CARCINOGEN TREATMENT (STUDY DURATION: 48 WK), Route [Carcinogen]: DERMAL, Strain/Sex: CD-1/FEMALE): skin: tumor
outcome (Carcinogen: 2-METHYLBENZO[K]FLUORANTHENE, 95741-57-4, Doses [Carcinogen]: 4 UMOL (TOTAL DOSE) ADMINISTERED IN 10 SUBDOSES 1/2 D, Doses [Promoter]: 2.5 UG IN 0.1 ML ACETONE 3/WK FOR 30 WK BEGINNING 10 D POST CARCINOGEN TREATMENT (STUDY DURATION: 33 WK), Route [Carcinogen]: DERMAL, Strain/Sex: CRL:CD-1/FEMALE): skin: tumor
outcome (Carcinogen: 3'-AZIDO-2',3'-DIDEOXYTHYMIDINE, 30516-87-1, Doses [Carcinogen]: 0, 25 MG IN 0.5 ML DISTILLED WATER ADMINISTERED TO PREGNANT RATS ON DAYS 12-18 OF GESTATION, Doses [Promoter]: 2 UG IN 0.1 ML DISTILLED WATER 2/WK FOR 17 WK THEN 5 UG IN 0.1 ML DISTILLED WATER 2/WK FROM WK 18 TO 35 ADMINISTERED TO, Route [Carcinogen]: GAVAGE, Strain/Sex: CD-1/MALE,FEMALE): skin:tumor
outcome (Carcinogen: 3-AMINO-1,4-DIMETHYL-5H-PYRIDO[4,3-B]INDOLE, 62450-06-0, Doses [Carcinogen]: 0, 2 MG/0.1 ML DMSO 2/WK FOR 5 WK, Doses [Promoter]: 2.5 UG IN 0.1 ML ACETONE 2/WK FOR 47 WK BEGINNING 1 WK POST CARCINOGEN TREATMENT (STUDY DURATION: 48 WK), Route [Carcinogen]: DERMAL, Strain/Sex: CD-1/FEMALE): skin: tumor
outcome (Carcinogen: 3-AMINO-1-METHYL-5H-PYRIDO[4,3-B]INDOLE, 62450-07-1, Doses [Carcinogen]: 0, 2 MG/0.1 ML DMSO 2/WK FOR 5 WK, Doses [Promoter]: 2.5 UG IN 0.1 ML ACETONE 2/WK FOR 47 WK BEGINNING 1 WK POST CARCINOGEN TREATMENT (STUDY DURATION: 48 WK), Route [Carcinogen]: DERMAL, Strain/Sex: CD-1/FEMALE): skin: tumor
outcome (Carcinogen: 3-METHYLBENZO[B]FLUORANTHRENE, 95741-50-7, Doses [Carcinogen]: 40, 100 NMOL TOTAL DOSE GIVEN IN 10 SUBDOSES 1/2 D IN 0.1 ML ACETONE, Doses [Promoter]: 2.5 UG IN 0.1 ML ACETONE 3/WK FOR 30 WK BEGINNING 10 D POST CARCINOGEN TREATMENT (STUDY DURATION: 34 WK), Route [Carcinogen]: DERMAL, Strain/Sex: CD-1/FEMALE): skin: tumors
outcome (Carcinogen: 3-METHYLCHOLANTHRENE, 56-49-5, Doses [Promoter]: 0, 1.8 NMOL IN 0.1 ML ACETONE 2/WK FOR 4 WK BEGINNING 6 WK POST CARCINOGEN DOSE (STUDY DURATION: 2 YR), Route [Carcinogen]: SUBCUTANEOUS, Strain/Sex: S/RVCRI/FEMALE): skin: tumor
outcome (Carcinogen: 4-CYCLOPENTA[DEF]CHRYSEN-4-ONE, 86853-91-0, Doses [Carcinogen]: 100 UG IN ACETONE (100 µL) 1/2 D FOR A TOTAL OF 10 SUBDOSES (TOTAL DOSE 1 MG), Doses [Promoter]: 0.0025% IN 100 µL ACETONE 3/WK FOR 20 WK BEGINNING POST CARCINOGEN TREATMENT (STUDY DURATION: 23 WK), Route [Carcinogen]: DERMAL, Strain/Sex: CD-1/FEMALE): skin: tumors
outcome (Carcinogen: 4-FLUOROBENZO[B]FLUORANTHENE, 146746-67-0, Doses [Carcinogen]: 10, 40, 120, 400 NMOL (TOTAL DOSE) APPLIED 1/2 D FOR 10 SUBDOSES, Doses [Carcinogen]: 10, 40, 120, 400 NMOL (TOTAL DOSE) APPLIED 1/2 D FOR 10 SUBDOSES, Doses [Promoter]: 0, 2.5 UG IN 100 µL ACETONE 3/WK FOR 20 WK BEGINNING 10 D POST CARCINOGEN TREATMENT (STUDY DURATION: 22 WK), Route [Carcinogen]: DERMAL, Strain/Sex: CRL:CD-1/FEMALE): skin: tumor
outcome (Carcinogen: 4-FLUOROBENZO[J]FLUORANTHENE, 129286-36-8, Doses [Carcinogen]: 0.3, 1, 2 UMOL (TOTAL DOSE) ADMINISTERED IN SUBDOSES 1/2 D, Doses [Carcinogen]: 0.3, 1, 2 UMOL (TOTAL DOSE) ADMINISTERED IN SUBDOSES 1/2 D, Doses [Promoter]: 2.5 UG IN 100 µL ACETONE 3/WK FOR 20 WK BEGINNING 10 D POST LAST CARCINOGEN DOSE (STUDY DURATION: 27 WK), Route [Carcinogen]: DERMAL, Strain/Sex: CD-1/FEMALE): skin: tumor
outcome (Carcinogen: 4-NITROPHENYL VINYL ETHER, 940-14-7, Doses [Carcinogen]: 5 UMOL IN 0.2 ML 15% DMSO IN ACETONE ONCE, Doses [Promoter]: 0, 15 NMOL IN 0.1 ML ACETONE ONCE 18-24 HR PRIOR TO CARCINOGEN DOSE THEN BEGINNING 1 WK LATER 2/WK FOR DURATION OF STUDY, Route [Carcinogen]: DERMAL, Strain/Sex: ICR/FEMALE): skin: papilloma
outcome (Carcinogen: 4H-CYCLOPENTA[DEF]CHRYSENE, 202-98-2, Doses [Carcinogen]: 100 UG IN ACETONE (100 µL) 1/2 D FOR A TOTAL OF 10 SUBDOSES (TOTAL DOSE 1 MG), Doses [Promoter]: 0.0025% IN 100 µL ACETONE 3/WK FOR 20 WK BEGINNING POST CARCINOGEN TREATMENT (STUDY DURATION: 23 WK), Route [Carcinogen]: DERMAL, Strain/Sex: CD-1/FEMALE): skin: tumors
outcome (Carcinogen: 5,6-DIMETHYLCHRYSENE, 3697-27-6, Doses [Carcinogen]: 100 NMOL IN 0.1 ML ACETONE ONCE, Doses [Promoter]: 0, 2.5 UG IN 0.1 ML ACETONE 3/WK FOR 20 WK BEGINNING 10 D POST CARCINOGEN DOSE (STUDY DURATION: 20 WK), Route [Carcinogen]: DERMAL, Strain/Sex: CD-1/FEMALE): skin: tumor
outcome (Carcinogen: 5-CHLOROMETHYLFURFURAL, 1623-88-7, Doses [Carcinogen]: 0, 10, 25 UMOL IN O.2 ML ACETONE:DMSO ONCE, Doses [Carcinogen]: 0, 10, 25 UMOL IN O.2 ML ACETONE:DMSO ONCE, Doses [Promoter]: 0, 2.5 UG 2/WK FOR 24 WK BEGINNING 1 WK POST CARCINOGEN DOSE (STUDY DURATION: 24 WK), Route [Carcinogen]: DERMAL, Strain/Sex: CD-1/FEMALE): skin: papilloma
outcome (Carcinogen: 5-FLUOROBENZO[B]FLUORANTHENE, 146746-68-1, Doses [Carcinogen]: 10, 40, 120, 400 NMOL (TOTAL DOSE) APPLIED 1/2 D FOR 10 SUBDOSES, Doses [Carcinogen]: 10, 40, 120, 400 NMOL (TOTAL DOSE) APPLIED 1/2 D FOR 10 SUBDOSES, Doses [Promoter]: 0, 2.5 UG IN 100 µL ACETONE 3/WK FOR 20 WK BEGINNING 10 D POST CARCINOGEN TREATMENT (STUDY DURATION: 22 WK), Route [Carcinogen]: DERMAL, Strain/Sex: CRL:CD-1/FEMALE): skin: tumor
outcome (Carcinogen: 5-HYDROXYMETHYLFURFURAL, 67-47-0, Doses [Carcinogen]: 0, 10, 25 UMOL IN 0.2 ML ACETONE:DMSO ONCE, Doses [Carcinogen]: 0, 10, 25 UMOL IN 0.2 ML ACETONE:DMSO ONCE, Doses [Promoter]: 0, 2.5 UG 2/WK FOR 24 WK BEGINNING 1 WK POST CARCINOGEN DOSE (STUDY DURATION: 24 WK), Route [Carcinogen]: DERMAL, Strain/Sex: CD-1/FEMALE): skin: papilloma
outcome (Carcinogen: 5-METHYLCHRYSENE, 3697-24-3, Doses [Carcinogen]: 33, 100 NMOL IN 0.1 ML ACETONE ONCE, Doses [Promoter]: 2.5 UG IN 0.1 ML ACETONE 3/WK FOR 25 WK BEGINNING 10 D POST INITIATION (STUDY DURATION: 27 WK), Route [Carcinogen]: DERMAL, Strain/Sex: CD-1/FEMALE): skin: tumors
outcome (Carcinogen: 5-SULFOOXYMETHYLFURFURAL, 159091-35-7, Doses [Carcinogen]: 0, 25 UMOL IN 0.2 ML ACETONE:DMSO ONCE, Doses [Promoter]: 0, 2.5 UG 2/WK FOR 24 WK BEGINNING 1 WK POST CARCINOGEN DOSE (STUDY DURATION: 24 WK), Route [Carcinogen]: DERMAL, Strain/Sex: CD-1/FEMALE): skin: papilloma
outcome (Carcinogen: 6-FLUOROBENZO[B]FLUORANTHENE, 125811-13-4, Doses [Carcinogen]: 10, 40, 120, 400 NMOL (TOTAL DOSE) APPLIED 1/2 D FOR 10 SUBDOSES, Doses [Carcinogen]: 10, 40, 120, 400 NMOL (TOTAL DOSE) APPLIED 1/2 D FOR 10 SUBDOSES, Doses [Promoter]: 0, 2.5 UG IN 100 µL ACETONE 3/WK FOR 20 WK BEGINNING 10 D POST CARCINOGEN TREATMENT (STUDY DURATION: 22 WK), Route [Carcinogen]: DERMAL, Strain/Sex: CRL:CD-1/FEMALE): skin: tumor
